Test results: patent publication US20220056019A1, “FARNESOID X RECEPTOR AGONISTS AND USES THEREOF” (Metacrine, Inc., priority 2018, published 2022)

Each compound was assayed against T1, hFXR (Homo sapiens, UniProt Q96RI1) (assay: In Vitro FXR Assay (TK): TK-ECRE-luc reporter in transfected CV-1 cells). Settings: 18 hrs incubation, luminescence.
T1 construct: expressed in transfected cells; host or cells: CV-1 cells
T1 sequence (Q96RI1 1-486): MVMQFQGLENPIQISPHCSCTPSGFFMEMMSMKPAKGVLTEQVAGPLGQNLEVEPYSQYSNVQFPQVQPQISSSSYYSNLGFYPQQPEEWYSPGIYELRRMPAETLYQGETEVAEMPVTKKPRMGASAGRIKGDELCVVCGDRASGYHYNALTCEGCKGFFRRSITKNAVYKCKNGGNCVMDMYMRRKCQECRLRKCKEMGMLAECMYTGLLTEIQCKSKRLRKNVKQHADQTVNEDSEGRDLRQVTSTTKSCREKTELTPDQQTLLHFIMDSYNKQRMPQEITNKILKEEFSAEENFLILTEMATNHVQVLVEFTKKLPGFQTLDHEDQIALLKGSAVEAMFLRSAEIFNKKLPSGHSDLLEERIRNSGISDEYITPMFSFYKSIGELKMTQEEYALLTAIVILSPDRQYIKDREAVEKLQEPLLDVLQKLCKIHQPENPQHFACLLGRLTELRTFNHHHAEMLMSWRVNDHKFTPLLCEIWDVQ
T1 sequence (P19793 1-462 partner): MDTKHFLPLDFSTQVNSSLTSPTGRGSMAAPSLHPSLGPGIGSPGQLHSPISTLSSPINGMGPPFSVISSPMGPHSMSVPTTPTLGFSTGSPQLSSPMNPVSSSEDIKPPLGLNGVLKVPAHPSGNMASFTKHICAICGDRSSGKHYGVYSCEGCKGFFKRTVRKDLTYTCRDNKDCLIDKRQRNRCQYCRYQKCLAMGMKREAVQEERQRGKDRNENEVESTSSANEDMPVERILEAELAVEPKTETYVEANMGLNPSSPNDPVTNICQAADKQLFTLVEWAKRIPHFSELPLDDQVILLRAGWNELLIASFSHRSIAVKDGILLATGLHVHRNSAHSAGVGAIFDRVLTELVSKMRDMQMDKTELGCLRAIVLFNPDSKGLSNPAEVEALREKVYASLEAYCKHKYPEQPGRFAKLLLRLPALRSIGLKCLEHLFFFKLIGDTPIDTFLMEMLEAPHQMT
Type: cell-based
In short: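 CV-1 cells in DMEM with 10% charcoal-stripped FBS were transiently co-transfected with hFXR, hRXR, TK-ECRE-luc reporter and pCMX-YFP plasmids over 18 h at 37 °C. Compounds serially diluted in DMSO were added for 18 h; cells were then lysed and luciferase luminescence measured.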

EC50, ≤ 50 nM:
COc1ccc([C@H]2CC[C@H](CN(c3cccc(-n4cnc(C5CC5)n4)c3)C(=O)[C@H]3CC[C@H](OC(=O)N4CC(O)C4)CC3)CC2)cc1C [Compound 5, trans-4-((3-(3-Cyclopropyl-1H-1,2,4-triazol-1-yl)phenyl)((trans-4-(4-methoxy-3-methylphenyl)cyclohexyl)methyl)carbamoyl)cyclohexyl 3-hydroxyazetidine-1-carboxylate]
COc1ccc(C23CCC(CN(c4cc(-c5cnn(C(C)C)c5)ccn4)C(=O)[C@H]4CC[C@H](OC(=O)NCCCCO)CC4)(CC2)CC3)cc1C [Compound 4.50, 4-((4-(1-Isopropyl-1H-pyrazol-4-yl)pyridin-2-yl) ((4-(4-methoxy-3-methylphenyl)bicyclo [2.2.2]octan-1-yl)methyl)carbamoyl)cyclohexyl(4-hydroxybutyl)trans-carbamate]
COc1ccc([C@H]2CC[C@H](CN(c3cc(-c4coc(C5CC5)n4)ccn3)C(=O)[C@H]3CC[C@H](OC(=O)NCC(C)(C)CO)CC3)CC2)nc1C [Compound 1, trans-4-((4-(2-Cyclopropyloxazol-4-yl)pyridin-2-yl)((trans-4-(5-methoxy-6-methylpyridin-2-yl)cyclohexyl)methyl)carbamoyl)cyclohexyl (3-hydroxy-2,2-dimethylpropyl)carbamate]
CCc1nc(-c2ccnc(N(CC34CCC(c5ccc(OC)c(C)c5)(CC3)CC4)C(=O)[C@H]3CC[C@H](OC(=O)N4CC(CO)C4)CC3)c2)co1 [Compound 4.30, 4-((4-(2-Ethyloxazol-4-yl)pyridin-2-yl)((4-(4-methoxy-3-methylphenyl)bicyclo[2.2.2]octan-1-yl)methyl)carbamoyl)(trans-cyclohexyl) 3-(hydroxymethyl)azetidine-1-carboxylate]
COc1ccc(C23CCC(CN(c4cccc(-c5cnn(C(C)C)c5)c4F)C(=O)[C@H]4CC[C@H](OC(=O)N5CC(O)C5)CC4)(CC2)CC3)cc1C [Compound 25.04, 4-((2-Fluoro-3-(1-isopropyl-1H-pyrazol-4-yl)phenyl)((4-(4-methoxy-3-methylphenyl)bicyclo[2.2.2]octan-1-yl)methyl)carbamoyl)cyclohexyl trans-3-hydroxyazetidine-1-carboxylate]
COc1ccc([C@H]2CC[C@H](CN(c3cc(-c4cnn(C(C)C)c4)ccn3)C(=O)[C@H]3CC[C@H](OC(=O)NCC(C)(C)CO)CC3)CC2)cc1C [Compound 2.20, trans-4-((4-(1-Isopropyl-1H-pyrazol-4-yl)pyridin-2-yl) ((trans-4-(4-methoxy-3-methylphenyl)cyclohexyl)methyl)carbamoyl) cyclohexyl(3-hydroxy-2,2-dimethylpropyl)carbamate]
CCc1ncc(-c2ccnc(N(CC34CCC(c5ccc(OC)c(C)c5)(CC3)CC4)C(=O)[C@H]3CC[C@H](OC(=O)N4CC(O)C4)CC3)c2)s1 [Compound 4.20, 4-((4-(2-Ethylthiazol-5-yl)pyridin-2-yl)((4-(4-methoxy-3-methylphenyl)bicyclo[2.2.2]octan-1-yl)methyl)carbamoyl) cyclohexyl 3-hydroxyazetidine-trans-1-carboxylate]
COc1ccc(C23CCC(CN(c4cc(-c5cnn(C(C)C)c5)ccn4)C(=O)[C@H]4CC[C@H](OC(=O)N5CC(O)C5)CC4)(CC2)CC3)nc1C [Compound 26.20, 4-((4-(1-Isopropyl-1H-pyrazol-4-yl)pyridin-2-yl)((4-(5-methoxy-6-methylpyridin-2-yl)bicyclo[2.2.2]octan-1-yl)methyl)carbamoyl)cyclohexyl trans-3-hydroxyazetidine-1-carboxylate]
COc1ccc(C23CCC(CN(c4cncc(-c5cnn(C(C)C)c5)c4)C(=O)[C@H]4CC[C@H](OC(=O)N5CC(O)C5)CC4)(CC2)CC3)cc1C [Compound 25, 4-((5-(1-Isopropyl-1H-pyrazol-4-yl)pyridin-3-yl)((4-(4-methoxy-3-methylphenyl)bicyclo[2.2.2]octan-1-yl)methyl)carbamoyl)cyclohexyl trans-3-hydroxyazetidine-1-carboxylate]
COc1ncc([C@H]2CC[C@H](CN(c3cc(-c4coc(C5CC5)n4)ccn3)C(=O)[C@H]3CC[C@H](OC(=O)N4CCN(C)CC4)CC3)CC2)cc1Cl [Compound 1.07, trans-4-((((trans)-4-(5-Chloro-6-methoxypyridin-3-yl)cyclohexyl)methyl)(4-(2-cyclopropyloxazol-4-yl)pyridin-2-yl)carbamoyl)cyclohexyl 4-methylpiperazine-1-carboxylate]
COc1ccc([C@H]2CC[C@H](CN(c3cc(-c4cnn(CCF)c4)ccn3)C(=O)[C@H]3CC[C@H](OC(=O)N4CC(O)C4)CC3)CC2)cc1C [Compound 2.23, trans-4-((4-(1-(2-Fluoroethyl)-1H-pyrazol-4-yl)pyridin-2-yl) ((trans-4-(4-methoxy-3-methylphenyl)cyclohexyl)methyl)carbamoyl) cyclohexyl 3-hydroxyazetidine-1-carboxylate]
COc1ccc([C@H]2CC[C@H](CN(c3cccc(-c4cnn(C(C)C)c4)c3)C(=O)[C@H]3CC[C@H](CCO)CC3)CC2)cc1C [Compound 15, trans-4-(2-Hydroxyethyl)-N-(3-(1-isopropyl-1H-pyrazol-4-yl)phenyl)-N-((trans-4-(4-methoxy-3-methylphenyl)cyclohexyl)methyl)cy-clohexanecarboxamide]
COc1ccc([C@H]2CC[C@H](CN(c3cccc(-c4cnn(C(C)C)c4)c3)C(=O)[C@H]3CC[C@H](OC(=O)NCC(C)(C)O)CC3)CC2)cc1C [Compound 5.12, trans-4-((3-(1-Isopropyl-1H-pyrazol-4-yl)phenyl)((trans-4-(4-methoxy-3-methylphenyl)cyclohexyl)methyl)carbamoyl)cyclohexyl (2-hydroxy-2-methylpropyl)carbamate]
COc1ccc(C23CCC(CN(c4cncc(-c5cnn(C6(C)CCC6)c5)c4)C(=O)[C@H]4CC[C@H](OC(=O)N5CC(O)C5)CC4)(CC2)CC3)cc1C [Compound 25.22, 4-(((4-(4-Methoxy-3-methylphenyl)bicyclo[2.2.2]octan-1-yl)methyl)(5-(1-(1-methylcyclobutyl)-1H-pyrazol-4-yl)pyridin-3-yl)carbamoyl)cyclohexyl trans-3-hydroxyazetidine-1-carboxylate]
COc1ccc(C23CCC(CN(c4cc(-c5cnn(C(C)C)c5)cc(Cl)n4)C(=O)[C@H]4CC[C@H](OC(=O)N5CC(O)C5)CC4)(CC2)CC3)cc1C [Compound 4.40, 4-((6-Chloro-4-(1-isopropyl-1H-pyrazol-4-yl)pyridin-2-yl)((4-(4-methoxy-3-methylphenyl)bicyclo[2.2.2]octan-1-yl)methyl)carbamoyl) cyclohexyl trans-3-hydroxyazetidine-1-carboxylate]
COc1ccc(C23CCC(CN(c4cc(-c5cnn(C(C)C)c5)ccn4)C(=O)[C@H]4CC[C@H](OC(=O)N5CC(C(C)(C)O)C5)CC4)(CC2)CC3)cc1C [Compound 4.42, 4-((4-(1-Isopropyl-1H-pyrazol-4-yl)pyridin-2-yl) ((4-(4-methoxy-3-methylphenyl)bicyclo [2.2.2]octan-1-yl)methyl)carbamoyl)cyclohexyl trans-3-(2-hydroxypropan-2-yl)azetidine-1-carboxylate]
COc1ccc(C23CCC(CN(c4ccc(F)c(-c5cnn(C(C)C)c5)c4)C(=O)[C@H]4CC[C@H](OC(=O)N5CC(CO)C5)CC4)(CC2)CC3)cc1C [Compound 25.09, 4-((4-Fluoro-3-(1-isopropyl-1H-pyrazol-4-yl)phenyl)((4-(4-methoxy-3-methylphenyl)bicyclo[2.2.2]octan-1-yl)methyl)carbamoyl)cyclohexyl trans-3-(hydroxymethyl)azetidine-1-carboxylate]
COc1ccc([C@H]2CC[C@H](CN(c3cc(-c4cnc(C(C)C)o4)ccn3)C(=O)[C@H]3CC[C@H](OC(=O)N4CC(O)C4)CC3)CC2)cc1C [Compound 2.37, trans-4-((4-(2-Isopropyloxazol-5-yl)pyridin-2-yl)((trans-4-(4-methoxy-3-methylphenyl)cyclohexyl)methyl)carbamoyl)cyclohexyl 3-hydroxyazetidine-1-carboxylate]
COc1ccc([C@H]2CC[C@H](CN(c3cc(-c4cnc(C(C)C)s4)ccn3)C(=O)[C@H]3CC[C@H](OC(=O)NC(C)C)CC3)CC2)cc1C [Compound 2.47, trans-4-((4-(2-Isopropylthiazol-5-yl)pyridin-2-yl)((trans-4-(4-methoxy-3-methylphenyl)cyclohexyl)methyl)carbamoyl)cyclohexyl isopropylcarbamate]
